Measurements published in publication PMC8868346, “Novel Series of Dual NRF2 Inducers and Selective MAO-B Inhibitors for the Treatment of Parkinson’s Disease” (Antioxidants, 2022).

Experiments:
[1] = system: rat striatal slices; assay: Rat striatal slices exposed to 6-OHDA: cell death and ROS production; assay type: cell-based; conditions: compound 10 µM, 6-OHDA 100 µM, 4 h
Description: (§1) Three- to four-month-old Sprague–Dawley rats were decapitated, the brain was removed, and the two brain hemispheres were separated. Each hemisphere was then cut into 300-µm coronal slices using a McIlwain Tissue Chopper (Cavey Laboratory Engineering, Surrey, UK) and separated in a previously oxygenated (95% O2 and 5% CO2) ice-cold Krebs’s dissection buffer (120 mM of NaCl; 2 mM of KCl; 26 mM of NaHCO3; 1.18 mM of KH2PO4; 10 mM of MgSO4; 0.5 mM of CaCl2; 11 mM of glucose; and 200 mM sucrose at pH 7.4) using a Leica SE6 microscope (Leica, Madrid, Spain). Striatum-containing slices were selected and immediately incubated for stabilization in dissection buffer without sucrose, bubbled with 95% O2 and 5% CO2 for 45 min at 34 °C, allowing slices to recover from slicing injury. […] Finally, cell death and the ROS production were measured.
(§2) ROS quantification was performed using the fluorescent probe 2,7′-dichlorodihydrofluorescein diacetate (H2DCFDA, λEx/Em = 495/529 nm; Thermo Fisher, Madrid, Spain). Cell death quantification was performed using the fluorescent probe propidium iodide (PI, λEx/Em = 535/617 nm; Thermo Fisher, Madrid, Spain). […] Fluorescence from striatum slices was then recorded for H2DCFDA (λEx/Em = 495/529 nm), PI (λEx/Em = 535/617 nm), and Hoechst (λEx/Em = 350/461 nm), in an inverted Nikon Eclipse T2000-U microscope (Nikon, Tokyo, Japan). […]

[2] = system: rat striatal slices; assay: Rat striatal slices exposed to rotenone: ROS production; assay type: cell-based; conditions: compound 10 µM, rotenone 10 µM, 4 h
Description: as §1, §2

[3] = system: HMOX1 and GCLC in MEF cells; assay: Western blot of NRF2-dependent proteins in WT and NRF2 KO MEF cells; assay type: cell-based, mouse; conditions: 10 µM, 8 or 16 h
Description: Cell samples were lysed in ice-cold AKT lysis buffer (137 mM of NaCl, 20 mM of NaF, 10% glycerol, 20 mM of Tris–HCl, 1% Nonidet P-40, 1 μg/mL of leupeptin, 1 mM of phenylmethylsulfonylfluoride, 1 mM of sodium pyrophosphate, and 1 mM of Na3VO4, pH 7.5). Protein quantification was performed using the Pierce BCA Protein Assay Kit (ThermoFisher, Madrid, Spain) following manufacturer’s instructions. Then, 30 μg of protein were resolved by sodium dodecyl sulfate-polyacrylamide gel electrophoresis (SDS-PAGE) and transferred to Immobilon-P polyvinylidene difluoride (PVDF) membranes (Millipore Corp.). Membranes were activated with methanol and blocked with 4% bovine serum albumin (BSA) in Tris-buffered saline-Tween (TTBS: 10 mM of Tris, 150 mM of NaCl; 0.2% Tween-20, pH 7.4) for 2 h. After that, membranes were incubated overnight at 4 °C with the corresponding primary antibodies: anti–HMOX1 (1:1000, ab68477, Abcam, Cambridge, UK), anti-glutamate-cysteine ligase catalytic subunit (GCLC, 1:1000, ab41463, Abcam), anti-β-actin (1:50,000, A3854, Sigma–Aldrich, Madrid, Spain). […] Band intensities from specific proteins were analyzed with Fiji software.

Q: For `C#CCN(CC#C)CCc1c[nH]c2ccc(OC(=O)C=Cc3ccccc3)cc12` [Compound 14, 3-(2-(Di(prop-2-yn-1-yl)amino)ethyl)-1H-indol-5-yl Cinnamate], which “ROS production (H2DCFDA), 6-OHDA model” value [1] is on record?
A: Its value is “significantly decreased ROS production”.

Q: What about the “cell death (propidium iodide), 6-OHDA model” value [1] of the same compound?
A: The value was “significant reduction in cell death”.

Q: And the “ROS levels (H2DCFDA), rotenone model” value [2]?
A: Its value is “reduced”.

Q: And the “HMOX1 and GCLC protein levels in NRF2 KO MEF cells” value [3]?
A: The value was “not able to increase”.

Q: And the “HMOX1 and GCLC protein levels in WT MEF cells” value [3]?
A: Its value is “increased”.
